In patent US20160184434A1, “AGENT FOR PROMOTING IN VIVO ABSORPTION OF HYDROXYTYROSOL AND DERIVATIVES THEREOF AND USE OF SAME” (priority 2013, published 2016):

Columns and labels:
[1] = Blood hydroxytyrosol after oral administration with 500 mg/kg grape seed extract (Example 2, LC/MS/MS); type: in vivo, SD (IGS) male rats; conditions: rats, hydroxytyrosol 30 mg/kg alone
Method: The present inventors investigated the influence of an OPC on the absorption of hydroxytyrosol in the body.
SD (IGS) male rats (9 weeks old) were purchased from Oriental Bioservice, Inc. and habituated to the test environment for one week, and then those rats which were well grown were put to use in the selected test. Those rats fasted overnight were divided into two groups each consisting of 5 or 6 animals. Group 1 (control) was given 30 mg/5 mL/kg of a hydroxytyrosol solution in distilled water; and Group 2 was given 30 mg/kg of hydroxytyrosol plus 5 mL/kg of a solution of 500 mg/kg grape seed extract in distilled water—both of the groups were orally administered using a sonde. Before and at 0.25, 0.5, 1, 2, 3 and 6 hours after the start of treatment, blood was sampled from the tail vein using a heparin-coated blood collection tube and centrifuged (at 8000 rpm for 10 min) to obtain plasma samples. The obtained plasma samples were subjected to deconjugation and deproteinization treatments, and the resulting supernatants were concentrated under reduced pressure, redissolved in 20% acetonitrile, and passed through a filter. The resulting solutions were analyzed by LC/MS/MS, and quantification of hydroxytyrosol was performed using the internal standard method. HPLC conditions
Internal standard (I.S.): 3-(4-hydroxyphenyl)-1-propanol […]

[2] = Blood hydroxytyrosol after oral administration with reduced doses of grape seed extract (Example 3); type: in vivo; conditions: male, SD (IGS), rat, rats, hydroxytyrosol 30 mg/kg alone (control), plasma, read-out: AUC of hydroxytyrosol at 0 to 6 hours
From the text: The present inventors investigated whether the same promoting effect on the absorption of hydroxytyrosol in the body as observed in Example 2 can be observed even if the dose of the grape seed extract is reduced.
SD (IGS) male rats (9.5 weeks old) were purchased from Oriental Bioservice, Inc. and habituated to the test environment for two weeks, and then those rats which were well grown were put to use in the selected test. Those rats fasted overnight were divided into three groups each consisting of 4 animals. Group 1 (control) was given 30 mg/5 mL/kg of a hydroxytyrosol solution in distilled water; Group 2 was given 30 mg/kg of hydroxytyrosol plus 5 mL/kg of a solution of 150 mg/kg grape seed extract in distilled water; and Group 3 was given 30 mg/kg of hydroxytyrosol plus 5 mL/kg of a solution of 250 mg/kg grape seed extract in distilled water—all of the groups were orally administered using a sonde. Before and at 0.25, 0.5, 1, 2, 3 and 6 hours after the start of treatment, blood was sampled from the tail vein using a heparin-coated blood collection tube and centrifuged (at 8000 rpm for 10 min) to obtain plasma samples. […] The resulting solutions were analyzed by LC/MS/MS, and quantification of hydroxytyrosol was performed using the internal standard method. […]

[3] = Blood hydroxytyrosol after oral administration with 150 to 750 mg/kg grape seed extract (Example 4); type: in vivo; conditions: male, SD (IGS), rat, rats, hydroxytyrosol 30 mg/kg alone (control), plasma, read-out: AUC of hydroxytyrosol at 0 to 6 hours
Method: The present inventors investigated whether the same promoting effect on the absorption of hydroxytyrosol in the body can be observed even if the dose of the grape seed extract is further increased in the same test system as used for the investigations in Examples 2 and 3. […] The method for calculating this purity will be presented later in Example 5. Also, the amount of a galloyl group contained in the grape seed extract was measured as the amount of a galloyl ester and determined to be about 2.2% by weight. The method for calculating this amount will be presented later in Example 6.
SD (IGS) male rats (8 weeks old) were purchased from Oriental Bioservice, Inc. and habituated to the test environment for one week, and then those rats which were well grown were put to use in the selected test. Those rats fasted overnight were divided into five groups each consisting of 4 animals (however, Group 5 consists of 2 animals). […]
The obtained plasma samples were subjected to deconjugation and deproteinization treatments, and the resulting supernatants were concentrated under reduced pressure, redissolved in 20% acetonitrile, and passed through a filter. The resulting solutions were analyzed by LC/MS/MS, and quantification of hydroxytyrosol was performed using the internal standard method. […]

[4] = Blood hydroxytyrosol after oral administration with EGCG or EGC (Example 1, HPLC); type: in vivo, SD (IGS) male rats; conditions: rats
From the text: The present inventors analyzed the influence of the particular compound having a galloyl group, i.e., EGCG, on the absorption of hydroxytyrosol in the body. At the same time, the inventors also analyzed the influence of EGC, a compound having no galloyl group, on the absorption of hydroxytyrosol in the body. By comparing the results for EGCG with those for the control, we investigated whether the galloyl group is involved in the absorption of hydroxytyrosol in the body.
SD (IGS) male rats (5 weeks old) were purchased from Oriental Bioservice, Inc. and habituated to the test environment for one week, and then those rats which were well grown were put to use in the selected test. Those rats fasted overnight were divided into three groups each consisting of 4 or 5 animals. Group 1 (control) was given 5 mL/kg of distilled water and 50 mg/5 mL/kg of a commercial hydroxytyrosol solution in distilled water; Group 2 was given 100 mg/5 mL/kg of an EGC solution in distilled water and 50 mg/5 mL/kg of a hydroxytyrosol solution in distilled water; and Group 3 was given 150 mg/5 mL/kg of an EGCG solution in distilled water and 50 mg/5 mL/kg of a hydroxytyrosol solution in distilled water—all of the groups were orally administered using a sonde. Before and at 0.25, 0.5, 1, 3 and 6 hours after the start of treatment, blood was sampled from the tail vein using a heparin-coated blood collection tube and centrifuged (at 8000 rpm for 10 min) to obtain plasma samples. The obtained plasma samples were subjected to deconjugation and deproteinization treatments, and the resulting supernatants were concentrated under reduced pressure, redissolved in 20% acetonitrile, and passed through a filter. The resulting solutions were analyzed by HPLC to determine their peak areas. Thus, quantification of hydroxytyrosol was performed. The EGCG used in this example was a commercially available EGCG product (EGCG purity: 94%). The HPLC conditions are shown below.
Column: X-bridge C18 (3.5 μm, 2.1×150 mm, produced by Waters)
Mobile phase: A: 0.1% acetic acid solution in water, B: 0.1% acetic acid/90% acetonitrile solution in water

[5] = hydroxytyrosol 50 mg/kg concurrently with EGCG 150 mg/kg

Row | Compound | blood hydroxytyrosol at 2 or 3 hours after administration [1] | AUC [2] | AUC [3] | AUC ([4]; male, SD (IGS), rat, hydroxytyrosol 50 mg/kg alone (control), plasma, read-out: AUC of hydroxytyrosol (amount absorbed in the body)) | time at which blood hydroxytyrosol concentration reached its peak ([4]; hydroxytyrosol 50 mg/kg alone) | blood hydroxytyrosol concentration after its peak (absorption profile) [4, 5] | time at which blood hydroxytyrosol concentration reached its peak [4, 5]
1 | OCCc1ccc(O)c(O)c1 [hydroxytyrosol, 3,4-dihydroxyphenylethanol] | little or no hydroxytyrosol was detected | 8640 ng·h/mL | 7360 ng·h/mL | 12000 ng·h/mL | 18 min |  | 
2 | O=C(O[C@@H]1Cc2c(O)cc(O)cc2O[C@@H]1c1cc(O)c(O)c(O)c1)c1cc(O)c(O)c(O)c1 [EGCG, epigallocatechin gallate] |  |  |  |  |  | kept high even thereafter | 30 min
